Assays:
Human Panelists = assay: Line Scale sensory testing human taste test (Table C); format: in vivo; settings: 5 μM compound + 6% fructose/glucose, low sodium buffer pH 7.1
Excerpt: Purpose: To create a dose-response curve for perceived sweetness intensity of fructose-glucose concentrations. Test samples containing experimental compound are compared to this dose-response curve to determine equivalent sweetness intensity. This type of study requires a number of evaluations in order to obtain statistically significant data, so the test may be repeated with the same or additional panelists.
Overview: A group of eight or more panelists taste solutions including fructose-glucose at various concentrations, as well as the experimental compound, both with and without added fructose-glucose. Panelists rate sweetness intensity of all samples on an unstructured horizontal line scale, anchored from 0 to 10, where 0 equals no sweetness and 10 equals intense sweetness. Scores for sweetness intensity are averaged across panelists. Then using the average scores and/or equation of the line for the fructose-glucose dose-response curve, equivalent sweetness fructose-glucose concentrations are determined for the samples containing experimental compound.
Procedure: Eight or more subjects are used for the Line Scale tests. Subjects have been previously familiarized with the key attribute taste and are trained to use the 0 to 10 unstructured line scale. Subjects refrain from eating or drinking (except water) for at least 1 hour prior to the test. Subjects eat a cracker and rinse with water several times to clean the mouth.
Fructose-glucose solutions are provided at a wide range of concentrations, such as 0%, 2%, 4%, 6%, 8%, and 10% fructose-glucose, in order to create the dose-response curve. Samples containing experimental compound are prepared both alone and in a 6% fructose-glucose solution. All samples are made up in low sodium buffer pH 7.1. In order to aid dispersion, solutions can also be made up in 0.1% ethanol.
The solutions are dispensed in 20 ml volumes into 1 oz. sample cups and served to the subjects at room temperature. All samples are presented in randomized counterbalanced order to reduce response bias. Further, two sessions of testing may be used to check panel precision.
Subjects taste each sample individually and rate sweetness intensity on the line scale prior to tasting the next sample. All samples are expectorated. Subjects may retaste the samples but can only use the volume of sample given. Subjects must rinse with water between samples. Eating an unsalted cracker between sample pairs may be required depending on the samples tasted.
The scores for each sample are averaged across subjects and standard error is calculated. The dose-response curve is plotted graphically, and this may be used to ensure the panel is rating accurately; i.e. increasing the concentration of fructose-glucose should correspond to increased average scores for sweetness. A 2-way ANOVA (factors being samples and panelists) and multiple comparison tests (such as Tukey's Honestly Significant Difference test) can be used to determine differences among samples and/or panelists. A 3-way ANOVA, with sessions as the third factor, can be used to determine if there is any difference in the ratings between sessions.

tasters [1] = assay: Reduced sugar ice cream sensory evaluation; format: in vivo, human; settings: for Average Sweet Intensity Score: scale 1 to 10
Protocol: A water soluble liquid sweetener concentrate composition comprising 0.1% by weight of Example 23 in USP grade propylene glycol can be prepared by mixing the amide compound and propylene glycol by stirring the composition while warming to about 50° C., then milling the resulting liquid in a Silverson mill with a square basket cage at 300-600 rpms, to further ensure homogeneity of the liquid. An alternative method actually used was that the amide compound was dissolved in ethanol (1:1000 dilution), sonicated for 20 minutes, and 19.80 grams of the diluted sweet enhancer sample was added to the vanilla flavoring (which contains 20-30% ethyl alcohol) and sonicate that sample for an additional 20 minutes.
Heavy cream and whole milk were placed into a 5000 mL stainless steel cylinder and mixed using a LIGHTNIN™ Mixer at 500 to 650 rpms using a 2.5 inch (6.35 cm) impeller with three straight blades. A vortex was created by positioning the impeller blades at a 30 to 45° angle. The sweet enhancer was added using the vanilla/ethanol mixture. Some milk/cream was added back to the weigh dish of the sweet enhancer to ensure all the amide compound was removed from the weigh dish. The sugar/stabilizer mixture was slowly added to the vortex of the mixing milk/cream solution. The resulting solution was mixed for 10 minutes until the sugar dissolved and the stabilizer rehydrated. Care was taken to ensured that no lumps or undissolved stabilizer existed in the solution. The remaining sugar was added to the vortex and mixing was continued for an additional 10 minutes. Egg yolks and vanilla flavor were next added and the mixing continued for 5 more minutes.
Ice cream samples were evaluated by tasters, using a rank rating design. Tasters used an anchored scale from 1 to 10 (1 being no sweetness, 10 being intense sweetness). Three digit coded samples were randomized and the following samples were given to tasters: full sugar version, ⅔ sugared version, ⅔ sugared+3.3 ppm or 6.6 ppm of compound 23. Tasters were instructed to hold the ice cream samples in their mouth for at least 5 seconds, expectorate the sample, and evaluate/rank the “peak” of sweetness intensity.

tasters [2] = assay: Reduced sugar soda syrup (strawberry soda) sensory evaluation; format: in vivo, human; settings: scale 1 to 10
Protocol: 1000.00 g of the ⅔ sugared syrup comprising compound 23 was formulated in the following manner. Compound 23 was diluted with maltodextrin (1:100) to make a sweetener concentrate composition for addition to the soda syrup formulation. An alternative method is to make a solution of amide compound in propylene glycol that can be added directly into the liquid soda syrup formulation. A 100 g batch of dry sweetener concentrate composition was produced by weighing 1.000 g of the enhancer and 99.0000 g of 10 D.E. maltodextrin. 50 g of the maltodextrin was placed on the bottom of a clean and dried mortar and the 1.0000 g of amide compound was added and slowly mixed into the maltodextrin. In a planetary mixer with a wire whip attachment (KITCHEN AIDE™ Mixer), the rest of the maltodextrin was added to the mixing bowl, and the contents of the mortar was placed into the mixer and the mixer was turned on to a slow speed (setting 3). A rubber spatula was used to remove the contents of the mortar and the contents were allowed to mix for an additional 10 minutes. A rubber spatula was used to scrap the walls and bottom of the bowl. The mixture was blended on low for another 15 minutes. The […] sweetener concentrate composition was stored in an air tight amber glass container. […]

For `CC(C)CNC(=O)C(C)(C)c1ccc(-c2cncc(C#N)c2)cc1` [Compound 23, 2-(4-(5-cyanopyridin-3-yl)phenyl)-N-isobutyl-2-methylpropanamide], the “Perceived Equivalent Sweet Solution” value (Human Panelists) was “Equal to 10% fructose/ % fructose/glucose”, the “sweetness compared with ⅔ sugared control ice cream” value (tasters [1]; 3.3 ppm and 6.6 ppm in ⅔ sugared ice cream) was “scored higher in sweetness than the ⅔ sugared control sample” and the “sweetness compared with fully sugared ice cream” value (tasters [1]; 6.6 ppm in ⅔ sugared ice cream) was “nearly as sweet as the fully sugared ice cream”. The “Qualitative feedback of tasters” value (tasters [1]; ice cream samples containing compound 23) was ““slight lingering” and “slight delay of sweetness””, the “Average Sweet Intensity Score” value (tasters [1]; ⅔ sugared ice cream + 3.3 ppm) was 5.143 and the “Average Sweet Intensity Score” value (tasters [1]; ⅔ sugared ice cream + 6.6 ppm) was 7.357. The “Average Sweet Intensity Score” value (tasters [2]; ⅔ sugared with HFCS strawberry soda + 1.0 ppm) was 6.429 and the “Average Sweet Intensity Score” value (tasters [2]; ⅔ sugared with HFCS strawberry soda + 1.3 ppm) was 7.214.

Source: patent US7842324B2 (Senomyx, Inc., priority 2005, dated 2010)
